Test results published in PubChem BioAssay AID330 (DTP/NCI, 2004).
Inconclusive results and toxic doses are left out. How the source made its calls: active means survival T/C of 150% or more; inactive means T/C below 125% in these data.

Test system: P388 leukemia ip, CD2F1 mice, survival T/C
Experiment: NCI In Vivo Anticancer Drug Screen. Data for tumor model P388 Leukemia (intraperitoneal) in CD2F1 (CDF1) mice
Conditions: endpoint: median survival time, higher = longer survival
Outline: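 Mice carrying the transplanted tumor received test compound or vehicle. Survival was recorded in each group, and the value is the treated-group measurement divided by that of the vehicle-treated control group.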

[1] = dose: 60.0 mg/kg/injection, schedule: Q01DX005 (ip), vehicle: saline with Tween-80
[2] = dose: 120.0 mg/kg/injection, schedule: Q01DX005 (ip), vehicle: saline with Tween-80
[3] = dose: 240.0 mg/kg/injection, schedule: Q01DX005 (ip), vehicle: saline with Tween-80
[4] = dose: 50.0 mg/kg/injection, schedule: Q01DX005 (ip), vehicle: saline with Tween-80
[5] = dose: 100.0 mg/kg/injection, schedule: Q01DX005 (ip), vehicle: saline with Tween-80
[6] = dose: 200.0 mg/kg/injection, schedule: Q01DX005 (ip), vehicle: saline with Tween-80
[7] = dose: 12.5 mg/kg/injection, schedule: Q01DX009 (ip), vehicle: saline with Tween-80
[8] = dose: 25.0 mg/kg/injection, schedule: Q01DX009 (ip), vehicle: saline with Tween-80
[9] = dose: 50.0 mg/kg/injection, schedule: Q01DX009 (ip), vehicle: saline with Tween-80
[10] = dose: 100.0 mg/kg/injection, schedule: Q01DX009 (ip), vehicle: saline with Tween-80
[11] = dose: 100.0 mg/kg/injection, schedule: Q04DX003 (ip), vehicle: saline with Tween-80
[12] = dose: 200.0 mg/kg/injection, schedule: Q04DX003 (ip), vehicle: saline with Tween-80
[13] = dose: 50.0 mg/kg/injection, schedule: Q01DX009 (ip), vehicle: Klucel (hydroxypropylcellulose) (HPC)
[14] = dose: 100.0 mg/kg/injection, schedule: Q01DX009 (ip), vehicle: Klucel (hydroxypropylcellulose) (HPC)
[15] = dose: 200.0 mg/kg/injection, schedule: Q01DX009 (ip), vehicle: Klucel (hydroxypropylcellulose) (HPC)
[16] = dose: 400.0 mg/kg/injection, schedule: Q04DX003 (ip), vehicle: saline with Tween-80

Measured: T/C

O=C1CC2CCC1(CS(=O)(=O)OCCCCOS(=O)(=O)CC13CCC(CC1=O)C3)C2
inactive: [1] 103 % of control | [2] 103 % of control | [3] 93 % of control

C/C(=N\NC(=S)N1CCC(c2ccccc2)CC1)c1nccnc1C
inactive: [4] 100 % of control | [5] 102 % of control | [6] 100 % of control

CN(CCc1ccccn1)c1ccc2c(c1)C(=O)c1ccccc1-2
inactive: [4] 100 % of control | [5] 93 % of control

O[C@H](c1cc(C(F)(F)F)nc2c(C(F)(F)F)cccc12)[C@@H]1CCCCN1
inactive: dose: 3.13 mg/kg/injection, schedule: Q01DX009 (ip), vehicle: saline with Tween-80 109 % of control | dose: 6.25 mg/kg/injection, schedule: Q01DX009 (ip), vehicle: saline with Tween-80 102 % of control | [7] 116 % of control | [8] 106 % of control

CC(C)(C)NC(=O)Nc1cccc(C(=O)O)c1
inactive: [1] 99 % of control | [2] 96 % of control | [3] 105 % of control

COc1ccc(Br)c(C(=O)N2CCc3ccccc32)c1OS(=O)(=O)c1ccc(C)cc1
inactive: dose: 25.0 mg/kg/injection, schedule: Q01DX009 (ip), vehicle: distilled water + Tween-80 98 % of control | dose: 50.0 mg/kg/injection, schedule: Q01DX009 (ip), vehicle: distilled water + Tween-80 100 % of control | dose: 100.0 mg/kg/injection, schedule: Q01DX009 (ip), vehicle: distilled water + Tween-80 91 % of control | dose: 200.0 mg/kg/injection, schedule: Q01DX009 (ip), vehicle: distilled water + Tween-80 89 % of control | dose: 400.0 mg/kg/injection, schedule: Q01DX009 (ip), vehicle: distilled water + Tween-80 95 % of control

COC(=O)C(C(C)=O)C(=O)c1cc([N+](=O)[O-])cc([N+](=O)[O-])c1 (configuration not stated)
inactive: dose: 100.0 mg/kg/injection, schedule: Q04DX002 (ip), vehicle: Klucel (hydroxypropylcellulose) (HPC) 98 % of control | dose: 200.0 mg/kg/injection, schedule: Q04DX002 (ip), vehicle: Klucel (hydroxypropylcellulose) (HPC) 100 % of control | dose: 400.0 mg/kg/injection, schedule: Q04DX002 (ip), vehicle: Klucel (hydroxypropylcellulose) (HPC) 97 % of control

CCOC(=O)c1c(Nc2ccccc2O)oc2ccccc12
inactive: dose: 100.0 mg/kg/injection, schedule: Q04DX003 (ip), vehicle: Klucel (hydroxypropylcellulose) (HPC) 98 % of control | dose: 200.0 mg/kg/injection, schedule: Q04DX003 (ip), vehicle: Klucel (hydroxypropylcellulose) (HPC) 92 % of control | dose: 400.0 mg/kg/injection, schedule: Q04DX003 (ip), vehicle: Klucel (hydroxypropylcellulose) (HPC) 95 % of control

CO/N=C/c1ccccc1C(=O)O
inactive: dose: 50.0 mg/kg/injection, schedule: Q01DX005 (ip), vehicle: Klucel (hydroxypropylcellulose) (HPC) 100 % of control | dose: 100.0 mg/kg/injection, schedule: Q01DX005 (ip), vehicle: Klucel (hydroxypropylcellulose) (HPC) 95 % of control | dose: 200.0 mg/kg/injection, schedule: Q01DX005 (ip), vehicle: Klucel (hydroxypropylcellulose) (HPC) 99 % of control

CCN(CC)Cc1c(C)[nH]c2ccccc2c1=O
inactive: [9] 109 % of control | [10] 118 % of control

O=C1c2ccsc2C(=O)c2ccsc21
inactive: [7] 101 % of control | [8] 105 % of control | [9] 101 % of control | [10] 99 % of control

CCN(CC)CCNc1ccc(C)c2sc3c(OC)cccc3c(=O)c12
inactive: [9] 113 % of control | [10] 100 % of control | dose: 200.0 mg/kg/injection, schedule: Q01DX009 (ip), vehicle: saline with Tween-80 116 % of control

CCSc1nsc(NC(C)=O)n1
inactive: dose: 100.0 mg/kg/injection, schedule: Q01DX001 (ip), vehicle: Klucel (hydroxypropylcellulose) (HPC) 104 % of control | dose: 200.0 mg/kg/injection, schedule: Q01DX001 (ip), vehicle: Klucel (hydroxypropylcellulose) (HPC) 96 % of control | dose: 400.0 mg/kg/injection, schedule: Q01DX001 (ip), vehicle: Klucel (hydroxypropylcellulose) (HPC) 102 % of control

CC12CC3(Nc4ccccc4C3(C)O)OC1(C)c1ccccc1N2 (configuration not stated)
inactive: [4] 95 % of control | [5] 92 % of control | [6] 92 % of control

OC(CCl)Cn1nnc2c3ccccc3ccc21 (configuration not stated)
inactive: dose: 25.0 mg/kg/injection, schedule: Q01DX005 (ip), vehicle: saline with Tween-80 101 % of control | [4] 101 % of control | [5] 101 % of control | [11] 99 % of control | [12] 94 % of control

Nc1ncnc2c1c(-c1ccc(Cl)cc1)cn2-c1ccc(I)cc1
inactive: [1] 100 % of control | [2] 102 % of control | [3] 88 % of control

O=C1NC(=O)C2(F)CC3(CCCCC3)C2N1 (configuration not stated)
inactive: dose: 1.5 mg/kg/injection, schedule: Q01DX005 (ip), vehicle: Klucel (hydroxypropylcellulose) (HPC) 100 % of control | dose: 3.0 mg/kg/injection, schedule: Q01DX005 (ip), vehicle: Klucel (hydroxypropylcellulose) (HPC) 102 % of control | dose: 6.0 mg/kg/injection, schedule: Q01DX005 (ip), vehicle: Klucel (hydroxypropylcellulose) (HPC) 94 % of control | dose: 12.5 mg/kg/injection, schedule: Q01DX001 (ip), vehicle: Klucel (hydroxypropylcellulose) (HPC) 103 % of control

NC(=O)C[C@H](NP(=S)(c1ccccc1)c1ccccc1)C(=O)O
inactive: [13] 102 % of control | [14] 98 % of control | [15] 110 % of control

CCOC(=O)C1=C(C(=O)c2ccccc2)C(c2ccc([N+](=O)[O-])cc2)C(C(=O)c2ccccc2)=C(C(=O)OCC)N1
inactive: dose: 7.5 mg/kg/injection, schedule: Q01DX005 (ip), vehicle: Klucel (hydroxypropylcellulose) (HPC) 94 % of control | dose: 15.0 mg/kg/injection, schedule: Q01DX005 (ip), vehicle: Klucel (hydroxypropylcellulose) (HPC) 95 % of control | dose: 30.0 mg/kg/injection, schedule: Q01DX005 (ip), vehicle: Klucel (hydroxypropylcellulose) (HPC) 100 % of control

N#CCCN(CCc1ccccn1)C(=S)Nc1cccc(C(F)(F)F)c1
inactive: dose: 50.0 mg/kg/injection, schedule: Q04DX003 (ip), vehicle: saline with Tween-80 99 % of control | [11] 101 % of control | [12] 100 % of control | [16] 101 % of control

CCOC(=O)C1Cc2nc(N)ncc2C1=O (configuration not stated)
inactive: dose: 15.0 mg/kg/injection, schedule: Q01DX009 (ip), vehicle: saline with Tween-80 96 % of control | dose: 30.0 mg/kg/injection, schedule: Q01DX009 (ip), vehicle: saline with Tween-80 107 % of control | dose: 60.0 mg/kg/injection, schedule: Q01DX009 (ip), vehicle: saline with Tween-80 114 % of control

O=C(CC(=O)c1ccccc1F)Nc1ccc([N+](=O)[O-])cc1
inactive: [7] 100 % of control | [8] 100 % of control | [9] 95 % of control | [11] 90 % of control | [12] 95 % of control | [16] 100 % of control

Nc1ccc(C(=O)Oc2ccc([N+](=O)[O-])cc2)cc1
inactive: [11] 95 % of control | [12] 90 % of control

Clc1cc2[nH]ccc2c(Cl)n1
inactive: dose: 50.0 mg/kg/injection, schedule: Q01DX001 (ip), vehicle: saline with Tween-80 90 % of control | dose: 100.0 mg/kg/injection, schedule: Q01DX001 (ip), vehicle: saline with Tween-80 92 % of control

CC[C@]12CCCN3CCc4c(n(c5ccccc45)C(=O)C1)[C@@H]32
inactive: [13] 95 % of control | [14] 107 % of control | [15] 91 % of control
